Here are results for eight compounds from patent publication US20210037830A1, “PHYTOTOXIC MICRONUTRIENT COMBINATIONS FOR SELECTIVE CONTROL OF INVASIVE PLANT SPECIES” (Edaphix, LLC, priority 2019, published 2021).

Like-named read-outs stand apart in the source and are kept apart here.

Data set [1] has as its system French marigold. To be noted: in vivo; cited from earlier work.
The subject of data set [2] is humans. To be noted: cited from earlier work.
The test system of data set [3] is humans. Conditions: 2005 carcinogen assessment guidelines; cited from earlier work.
The test system of data set [4] is chlorophyllitic plants. Briefly: Photosynthetic disruption by glyphosate. It is filed as in vivo. Here is the method: Extensive research has documented that plants are often sensitive to relatively minute concentrations or exposures to unique synthetic compounds or combinations of naturally occurring elements, including micronutrients. For example, glyphosate (aka ROUNDUP®, a synthetic Monsanto/Bayer product) is effective at causing photosynthetic disruption in chlorophyllitic plants at an application rate of as little as 0.75 pounds active ingredient per acre, which equates to only approximately 8 mg/square foot of application, equivalent to approximately 14 ppm application rate. The American Phytopathological Society (APS) reported that micronutrients are generally toxic when present in high amounts, although ‘high concentrations’ are not clearly defined, and little toxicity have been reported at exceptionally low micronutrient concentrations. This occurrence is known as micronutrient toxicity syndrome (MTS). […] In addition, plants can vary considerably from species to species in their susceptibility to nutrient toxicities. For example, Lee and others (1996) reported inducing seed geranium (Pelargonium×hortorum) micronutrient toxicity symptoms by applying nutrient solutions containing 0.5 mg/L B, Cu, or Zn, or as little as 0.25 mg/L Mo, in combination with nitrogen, phosphorus, and potassium. […]

In data set [5] the test system is chlorophyllitic plants. Conditions: in vivo; cited from earlier work.
In data set [6] the test system is seed geranium (Pelargonium×hortorum). To be noted: in combination with nitrogen, phosphorus, and potassium; cited from earlier work.

For `[Mn+2]` [manganese], the “concentration inducing micro-nutrient toxicity” value in data set [1] is 1000 ng/mL. Turning to borate salts, in data set [2], the endocrine disruptor classification result is listed as “neither classified as endocrine disruptors”. Also, the “U.S. EPA carcinogenicity classification” value in data set [3] is on record as “not likely to be carcinogenic to humans”. As for `O=C(O)CNCP(=O)(O)O` [glyphosate], the “application rate effective at causing photosynthetic disruption” value is recorded as “approximately 8 mg/square foot” in data set [4] (equates to the rate per acre), “approximately 14 ppm” in data set [4] (equivalent application rate) and 0.75 pounds active ingredient per acre in data set [5].

Regarding `[B]` [boron], the endocrine disruptor classification result in data set [2] is listed as “neither classified as endocrine disruptors”. Besides, the “concentration inducing micro-nutrient toxicity” value in data set [1] is 500 ng/mL.

For `[Cu]` [copper], the “concentration inducing micro-nutrient toxicity” value in data set [1] was 4000 ng/mL. As for `[Mo]` [molybdenum], in data set [1], the “concentration inducing micro-nutrient toxicity” value was 5000 ng/mL. Consider `OB(O)O` [boric acid], for which the endocrine disruptor classification result in data set [2] is on record as “neither classified as endocrine disruptors”. With `[Zn]` [Zn, zinc], the “nutrient solution concentration inducing micronutrient toxicity symptoms” value in data set [6] is reported as 0.5 mg/L.
